pIC50: −log10 of the molar value.
Assays:
[1] = molecular target: T1, human A2a adenosine receptor (Homo sapiens (Human), UniProt P29274); test: A2A antagonism in cAMP cell-based assay (LANCE cAMP, HEK293 cells, 300 nM adenosine); details: values marked *: cAMP cell-based assay
Method: Measurement of A2A and A2B Antagonism in cAMP Cell-Based Assay
All subsequent liquid additions were performed using a multichannel pipettor. […] After this time 5 μL of either 300 nM or 600 nM adenosine (Sigma Cat. No. A9251) for A2A and A2B respectively was added and incubated for 30 minutes at 37° C. and 5% CO2 in a humidified environment. At this time detection mix was prepared by combining the LANCE Eu-W8044 labeled streptavidin and. Biotin-cAMP in detection buffer according to the manufacturers protocol. […] Curve fitting of the percent effect data versus the log of compound concentration used a 4-parameter concentration response curve fitting algorithm to calculate IC50 values.

[2] = molecular target: T2, human A2b adenosine receptor (Homo sapiens (Human), UniProt P29275); test: A2B antagonism in cAMP cell-based assay (LANCE cAMP, HEK293 cells, 600 nM adenosine); details: for pIC50: values marked *: cAMP cell-based assay
[3] = molecular target: T2, human A2b adenosine receptor; test: A2b radioligand filtration binding assay (tritiated proprietary A2b antagonist, HEK293 membranes); details: @ 10000 nM, unstarred
Procedure, shortened: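 Displacement of a tritiated proprietary A2b antagonist from membranes of HEK293 cells recombinantly expressing human A2b receptor, measured by filtration and scintillation counting. Percent effect was normalized to total and non-specific binding and fitted with a 4-parameter logistic to give IC50.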

[4] = molecular target: T1, human A2a adenosine receptor; test: A2a receptor affinity radioligand binding assay ([3H] SCH58261, membranes from HEK293 or CHO cells); details: unstarred values: radioligand binding
Procedure, shortened: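 Displacement of tritiated SCH58261 (working dilution 4 nM) from recombinant human A2a receptor membranes (HEK293 or CHO), 60 min at room temperature in Tris pH 7.4/MgCl2 buffer after 15–30 min compound preincubation. Scintillation counting after filtration; normalized percent effect fitted 4-parameter logistic for IC50.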

T2 sequence (P29275 whole entry): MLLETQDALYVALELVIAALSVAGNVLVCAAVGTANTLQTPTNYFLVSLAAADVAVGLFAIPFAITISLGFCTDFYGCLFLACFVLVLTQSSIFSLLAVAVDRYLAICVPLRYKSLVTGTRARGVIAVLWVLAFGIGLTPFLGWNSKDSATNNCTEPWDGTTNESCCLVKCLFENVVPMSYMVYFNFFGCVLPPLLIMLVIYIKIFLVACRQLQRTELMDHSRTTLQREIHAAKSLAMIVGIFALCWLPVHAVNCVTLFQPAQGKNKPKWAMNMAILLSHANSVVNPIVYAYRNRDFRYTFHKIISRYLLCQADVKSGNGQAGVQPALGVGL
T1 sequence (P29274 whole entry): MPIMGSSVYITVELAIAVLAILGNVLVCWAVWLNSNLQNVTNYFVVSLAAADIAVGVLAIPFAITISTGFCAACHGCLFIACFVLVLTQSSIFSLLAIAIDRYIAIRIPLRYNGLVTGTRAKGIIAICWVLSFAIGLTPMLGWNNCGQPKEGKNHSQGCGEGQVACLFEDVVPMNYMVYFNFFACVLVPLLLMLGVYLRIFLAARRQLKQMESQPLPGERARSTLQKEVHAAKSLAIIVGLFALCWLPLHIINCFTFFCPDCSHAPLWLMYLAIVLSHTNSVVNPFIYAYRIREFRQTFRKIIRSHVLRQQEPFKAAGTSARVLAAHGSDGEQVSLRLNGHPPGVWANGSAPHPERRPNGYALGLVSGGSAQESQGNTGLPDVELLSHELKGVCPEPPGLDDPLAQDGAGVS

pIC50 [1] | pIC50 [2] | A2B binding % inh. @ 10000 nM [3] | pIC50 [4] | *A2B cAMP % inh. @ 10000 nM ([2]; @ 10000 nM, marked *) | SMILES
6.99 | 5.66 | – | – | – | COc1cccc2c1nc(N)n1nc(C3CCC(C)N(c4cnn(C(C)(C)CO)c4)C3)nc21 (single isomer, unassigned) [Example 146C]
6.20 | < 5.00 | – | – | – | COc1ccc2c(c1)nc(N)n1nc([C@@H]3C[C@@H](C(F)(F)F)CN(c4cnn(CC(C)(C)O)c4)C3)nc21 (single isomer, unassigned) [Example 218B, 1-(4-((3R,5R or 3S,5S)-3-(5-amino-8-methoxy-[1,2,4]triazolo[1,5-c]quinazolin-2-yl)-5-(trifluoromethyl)piperidin-1-yl)-1H-pyrazol-1-yl)-2-methylpropan-2-ol]
7.39 | – | 18% inh. @ 10000 nM | – | – | COc1cccc2c1nc(N)n1nc([C@@H]3CCCN(c4cc(C(F)(F)F)ccn4)C3)nc21 [Example 116, (R)-7-melhoxy-2-(1-(4-(trifluoromethyl)pyridin-2-yl)piperidin-3-yl)-[1,2,4]triazolo[1,5-c]quinazolin-5-amine]
7.97 | 6.98 | – | – | – | COc1cccc2c1nc(N)n1nc([C@@H]3CCCN(c4ccc(C(F)(F)F)cn4)C3)nc21 [Example 118, (R)-7-methoxy-2-(1-(5-(trifluoromethyl)pyridin-2-yl)piperidin-3-yl)-[1,2,4]triazolo[1,5-c]quinazolin-5-amine]
7.52 | 6.34 | – | – | – | COc1cccc2c1nc(N)n1nc([C@H]3CC[C@@H](C)N(c4cn(CC(C)(C)O)nc4C)C3)nc21 [Example 145D, 1-(4-((2R,5S)-5-(5-amino-7-methoxy-[1,2,4]triazolo[1,5-c]quinazolin-2-yl)-2-methylpiperidin-1-yl)-3-methyl-1H-pyrazol-1-yl)-2-methylpropan-2-ol]
– | 6.00 | – | 9.70 | – | COc1ccc2c(c1)nc(N)n1nc([C@@H]3C[C@H](C)CN(c4cn([C@H](C)[C@@H](C)O)nc4C)C3)nc21 [Example 219B, (2R,3R)-3-(4-((3R,5S)-3-(5-amino-8-methoxy-[1,2,4]triazolo[1,5-c]quinazolin-2-yl)-5-methylpiperidin-1-yl)-3-methyl-1H-pyrazol-1-yl)butan-2-ol]
7.41 | 5.25 | – | – | – | COc1ccc2c(c1)nc(N)n1nc([C@H]3C[C@@H](C)CN(c4cn([C@H](C)[C@@H](C)O)nc4C)C3)nc21 [Example 219C, (2R,3R)-3-(4-((3S,5R)-3-(5-amino-8-methoxy-[1,2,4]triazolo[1,5-c]quinazolin-2-yl)-5-methylpiperidin-1-yl)-3-methyl-1H-pyrazol-1-yl)butan-2-ol]
7.35 | – | – | – | 33% inh. @ 10000 nM* | COc1ccc2c(c1)nc(N)n1nc([C@@H]3C[C@H](C)CN(c4cn([C@@H](C)[C@H](C)O)nc4C)C3)nc21 [Example 219D, (2S,3S)-3-(4-((3R,5S)-3-(5-amino-8-methoxy-[1,2,4]triazolo[1,5-c]quinazolin-2-yl)-5-methylpiperidin-1-yl)-3-methyl-1H-pyrazol-1-yl)butan-2-ol]
– | 7.18 | – | 8.99 | – | COc1ccc2c(c1)nc(N)n1nc([C@@H]3CCCN(c4cnn([C@@H](C)[C@H](C)O)c4)C3)nc21 [Example 220A, (2S,3S)-3-(4-((R)-3-(5-amino-8-methoxy-[1,2,4]triazolo[1,5-c]quinazolin-2-yl)piperidin-1-yl)-1H-pyrazol-1-yl)butan-2-ol]
– | 7.28 | – | 8.86 | – | COc1ccc2c(c1)nc(N)n1nc([C@@H]3CCCN(c4cnn([C@H](C)[C@@H](C)O)c4)C3)nc21 [Example 220B, (2R,3R)-3-(4-((R)-3-(5-amino-8-methoxy-[1,2,4]triazolo[1,5-c]quinazolin-2-yl)piperidin-1-yl)-1H-pyrazol-1-yl)butan-2-ol]
– | 7.21 | – | 8.72 | – | COc1ccc2c(c1)nc(N)n1nc([C@@H]3CCCN(c4cnn([C@@H](C)[C@@H](C)O)c4)C3)nc21 [Example 221A, (2R,3S)-3-(4-((R)-3-(5-amino-8-methoxy-[1,2,4]triazolo[1,5-c]quinazolin-2-yl)piperidin-1-yl)-1H-pyrazol-1-yl)butan-2-ol]
– | 7.07 | – | 8.82 | – | COc1ccc2c(c1)nc(N)n1nc([C@@H]3CCCN(c4cnn([C@H](C)[C@H](C)O)c4)C3)nc21 [Example 221B, (2S,3R)-3-(4-((R)-3-(5-amino-8-methoxy-[1,2,4]triazolo[1,5-c]quinazolin-2-yl)piperidin-1-yl)-1H-pyrazol-1-yl)butan-2-ol]
7.20 | 5.76 | – | – | – | COc1ccc2c(c1)nc(N)n1nc([C@H]3C[C@H](C)CN(c4cnn(C(C)(C)CO)c4)C3)nc21 [Example 222B, 2-(4-((3S,5S)-3-(5-amino-8-methoxy-[1,2,4]triazolo[1,5-c]quinazolin-2-yl)-5-methylpiperidin-1-yl)-1H-pyrazol-1-yl)-2-methylpropan-1-ol]
– | 7.87 | – | 9.40 | – | COc1ccc2c(c1)nc(N)n1nc([C@H]3C[C@@H](C)CN(c4cnn(C(C)(C)CO)c4)C3)nc21 [Example 222C, 2-(4-((3S,5R)-3-(5-amino-8-methoxy-[1,2,4]triazolo[1,5-c]quinazolin-2-yl)-5-methylpiperidin-1-yl)-1H-pyrazol-1-yl)-2-methylpropan-1-ol]
7.48 | 6.18 | – | – | – | COc1ccc2c(c1)nc(N)n1nc([C@@H]3C[C@@H](C)CN(c4cnn(C(C)(C)CO)c4)C3)nc21 [Example 222D, 2-(4-((3R,5R)-3-(5-amino-8-methoxy-[1,2,4]triazolo[1,5-c]quinazolin-2-yl)-5-methylpiperidin-1-yl)-1H-pyrazol-1-yl)-2-methylpropan-1-ol]
– | 7.68 | – | 9.00 | – | COc1cc(F)c2c(c1)nc(N)n1nc([C@@H]3CC[C@H](C)N(c4cnn(CC(C)(C)O)c4)C3)nc21 [Example 223, 1-(4-((2S,5R)-5-(5-amino-10-fluoro-8-methoxy-[1,2,4]triazolo[1,5-c]quinazolin-2-yl)-2-methylpiperidin-1-yl)-1H-pyrazol-1-yl)-2-methylpropan-2-ol]
– | 8.02 | – | 9.52 | – | COc1ccc(F)c2c1nc(N)n1nc([C@@H]3CC[C@H](C)N(c4cnn(CC(C)(C)O)c4)C3)nc21 [Example 224, 1-(4-((2S,5R)-5-(5-amino-10-fluoro-7-methoxy-[1,2,4]triazolo[1,5-c]quinazolin-2-yl)-2-methylpiperidin-1-yl)-1H-pyrazol-1-yl)-2-methylpropan-2-ol]
– | 7.49 | – | 8.92 | – | COc1ccc2c(c1)nc(N)n1nc([C@@H]3CCCN(c4cnn(C(C)(C)[C@H](C)O)c4)C3)nc21 [Example 225A]
– | 7.11 | – | 8.49 | – | COc1ccc2c(c1)nc(N)n1nc([C@@H]3CCCN(c4cnn(C(C)(C)[C@@H](C)O)c4)C3)nc21 [Example 225B]

Source: patent US12263171B2, “7-, 8-, and 10-substituted amino triazolo quinazoline derivatives as adenosine receptor antagonists, pharmaceutical compositions and their use” (Merck Sharp & Dohme LLC, priority 2018, dated 2025)
